From patent publication US20120225061A1, “TETRASUBSTITUTED CYCLOHEXYL COMPOUNDS AS KINASE INHIBITORS” (priority 2011, published 2012)
pEC50, pIC50: −log10 of the molar value.

Legend:
Pim2 kinase = Pim2 kinase (Homo sapiens, UniProt Q9P1W9); test: Pim2 AlphaScreen assay (high ATP)
Protocol: (§1) The activity of Pim 1, Pim 2, & Pim 3 is measured using a homogeneous bead based system quantifying the amount of phosphorylated peptide substrate resulting from kinase-catalyzed phosphoryl transfer to a peptide substrate. Compounds to be tested are dissolved in 100% DMSO and directly distributed to a white 384-well plate at 0.25 μl per well. […] This is followed by the addition of 5 μl/well of Pim 1, Pim 2 or Pim 3 kinase in assay buffer (concentrations described below). Final assay concentrations (described below) are in 2.5% DMSO. The reactions are performed for ˜2 hours, then stopped by the addition of 10 μl of 0.75 μg/ml anti-phospho Ser/Thr antibody (Cell Signaling), 10 μg/ml Protein A AlphaScreen beads (Perkin Elmer), and 10 μg/ml streptavidin coated AlphaScreen beads in stop/detection buffer (50 mM EDTA, 95 mM Tris, pH=7.5, 0.01% Tween-20). The stopped reactions are incubated overnight in the dark. The phosphorylated peptide is detected via an oxygen anion initiated chemiluminescence/fluorescence cascade using the Envision plate reader (Perkin Elmer).

Pim1 kinase = Pim1 kinase (Homo sapiens, UniProt P11309); test: Pim1 AlphaScreen assay (high ATP)
Protocol: as §1

[1] = system: KMS11 (human myeloma cell line); test: Cell proliferation assay (CellTiter-Glo) in KMS11 cells; assay type: cell-based; settings: KMS-11, 72 h, Table 5, 3 days, read-out: KMS11-luc EC50
How it was run: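 KMS11 cells at 2000 per well in IMDM/10% FBS were exposed to compound for 3 days. Viability was read by CellTiter-Glo luminescence.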

Pim3 kinase = Pim3 kinase (Homo sapiens, UniProt Q86V86); test: Pim3 AlphaScreen assay (high ATP)

Sequence of Pim1 kinase (P11309 whole entry): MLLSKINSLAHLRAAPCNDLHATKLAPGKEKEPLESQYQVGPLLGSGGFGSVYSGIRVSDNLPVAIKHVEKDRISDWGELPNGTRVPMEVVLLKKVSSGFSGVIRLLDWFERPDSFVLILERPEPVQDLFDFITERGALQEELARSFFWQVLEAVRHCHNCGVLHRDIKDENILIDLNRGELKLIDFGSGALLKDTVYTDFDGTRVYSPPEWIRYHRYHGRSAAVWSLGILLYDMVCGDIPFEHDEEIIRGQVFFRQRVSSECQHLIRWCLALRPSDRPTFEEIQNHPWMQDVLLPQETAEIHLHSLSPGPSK
Sequence of Pim2 kinase (Q9P1W9 whole entry): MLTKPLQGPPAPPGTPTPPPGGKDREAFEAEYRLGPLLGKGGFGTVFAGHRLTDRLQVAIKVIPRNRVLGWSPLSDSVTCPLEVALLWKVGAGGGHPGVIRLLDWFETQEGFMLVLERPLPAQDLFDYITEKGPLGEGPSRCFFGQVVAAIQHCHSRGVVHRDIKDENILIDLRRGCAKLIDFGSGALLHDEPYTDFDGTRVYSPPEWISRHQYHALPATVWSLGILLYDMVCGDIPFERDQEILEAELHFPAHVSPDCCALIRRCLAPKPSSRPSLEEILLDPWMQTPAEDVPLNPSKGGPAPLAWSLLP

| pIC50 (Pim2 kinase) | pIC50 (Pim1 kinase) | pEC50 [1] | pIC50 (Pim3 kinase) | Compound |
| --- | --- | --- | --- | --- |
| 8.83 | 10.70 | 7.09 | 9.14 | C[C@H]1C[C@@H](c2ccncc2NC(=O)c2ccc(F)c(-c3c(F)cc(C4CCOCC4)cc3F)n2)C[C@@H](N)[C@]1(C)O [Example 71, N-(4-((1R,3R,4R,5S)-3-amino-4-hydroxy-4,5-dimethylcyclohexyl)pyridin-3-yl)-6-(2,6-difluoro-4-(tetrahydro-2H-pyran-4-yl)phenyl)-5-fluoropicolinamide] |
| 6.21 | 8.17 | < 5.00 | 6.33 | C[C@@H]1C[C@H](c2ccncc2NC(=O)c2ccc(F)c(-c3c(F)cc(C4(O)CCCC4)cc3F)n2)C[C@H](O)[C@@]1(C)O [Example 79, 6-(2,6-difluoro-4-(1-hydroxycyclopentyl)phenyl)-N-(4-((1S,3S,4S,5R)-3,4-dihydroxy-4,5-dimethylcyclohexyl)pyridin-3-yl)-5-fluoropicolinamide] |
| 6.81 | 9.38 | 6.72 | 7.20 | C[C@H]1C[C@@H](c2ccncc2NC(=O)c2ccc(F)c(-c3c(F)cc(C(C)(C)O)cc3F)n2)C[C@@H](O)[C@]1(C)O [Example 73, 6-(2,6-difluoro-4-(2-hydroxypropan-2-yl)phenyl)-N-(4-((1R,3R,4R,5S)-3,4-dihydroxy-4,5-dimethylcyclohexyl)pyridin-3-yl)-5-fluoropicolinamide] |
| 8.81 | 10.70 | 6.78 | 9.27 | CC(C)Oc1cc(F)c(-c2nc(C(=O)Nc3cnccc3[C@H]3C[C@@H](N)[C@](C)(O)[C@@H](C)C3)ccc2F)c(F)c1 [Example 64, N-(4-((1R,3R,4R,5S)-3-amino-4-hydroxy-4,5-dimethylcyclohexyl)pyridin-3-yl)-6-(2,6-difluoro-4-isopropoxyphenyl)-5-fluoropicolinamide] |
| 8.57 | 10.30 | 7.23 | 8.88 | CCc1cc(F)c(-c2nc(C(=O)Nc3cnccc3[C@H]3C[C@@H](N)[C@](C)(O)[C@@H](C)C3)ccc2F)c(F)c1 [Example 2, N-(4-((1R,3R,4R,5S)-3-amino-4-hydroxy-4,5-dimethylcyclohexyl)pyridin-3-yl)-6-(4-ethyl-2,6-difluorophenyl)-5-fluoropicolinamide] |
| 5.80 | 7.73 | < 5.00 | 6.01 | C[C@@H]1C[C@H](c2ccncc2NC(=O)c2ccc(F)c(-c3c(F)cc(CN4CCCC4=O)cc3F)n2)C[C@H](O)[C@@]1(C)O [Example 78, 6-(2,6-difluoro-4-((2-oxopyrrolidin-1-yl)methyl)phenyl)-N-(4-((1S,3S,4S,5R)-3,4-dihydroxy-4,5-dimethylcyclohexyl)pyridin-3-yl)-5-fluoropicolinamide] |
| 6.17 | 8.58 | < 5.00 | 6.72 | CC1C[C@@H](c2ccncc2NC(=O)c2ccc(F)c(-c3c(F)cc(Oc4ccncc4)cc3F)n2)C[C@@H](O)[C@]1(C)O (stereo in doubt) [Example 116, 6-(2,6-difluoro-4-(pyridin-4-yloxy)phenyl)-N-(4-((1R,3R,4R,5S)-3,4-dihydroxy-4,5-dimethylcyclohexyl)pyridin-3-yl)-5-fluoropicolinamide] |
| 8.83 | 10.70 | 7.66 | 9.46 | C[C@H]1C[C@@H](c2ccncc2NC(=O)c2ccc(F)c(-c3c(F)cc(O[C@H]4CCCOC4)cc3F)n2)C[C@@H](N)[C@]1(C)O [Example 89, N-(4-((1R,3R,4R,5S)-3-amino-4-hydroxy-4,5-dimethylcyclohexyl)pyridin-3-yl)-6-(2,6-difluoro-4-((S)-tetrahydro-2H-pyran-3-yloxy)phenyl)-5-fluoropicolinamide] |
| 8.67 | 10.52 | 7.42 | 9.14 | C[C@H]1C[C@@H](c2ccncc2NC(=O)c2ccc(F)c(-c3c(F)cc(OC4CCOCC4)cc3F)n2)C[C@@H](N)[C@]1(C)O [Example 65, N-(4-((1R,3R,4R,5S)-3-amino-4-hydroxy-4,5-dimethylcyclohexyl)pyridin-3-yl)-6-(2,6-difluoro-4-(tetrahydro-2H-pyran-4-yloxy)phenyl)-5-fluoropicolinamide] |
| 8.53 | 10.52 | 7.89 | 8.79 | C[C@H]1C[C@@H](c2ccncc2NC(=O)c2ccc(F)c(-c3c(F)cc(C(C)(C)O)cc3F)n2)C[C@@H](N)[C@]1(C)O [Example 66] |
| 8.78 | 10.70 | 7.31 | 9.28 | Cc1cc(F)c(-c2nc(C(=O)Nc3cnccc3[C@H]3C[C@@H](N)[C@](C)(O)[C@@H](C)C3)c(N)cc2F)c(F)c1 [Example 146, 3-amino-N-(4-((1R,3R,4R,5S)-3-amino-4-hydroxy-4,5-dimethylcyclohexyl)pyridin-3-yl)-6-(2,6-difluoro-4-methylphenyl)-5-fluoropicolinamide] |
| 6.00 | 8.07 | 5.33 | 5.79 | C[C@H]1C[C@@H](c2ccncc2NC(=O)c2ccc(F)c(-c3c(F)cc(S(C)(=O)=O)cc3F)n2)C[C@@H](O)[C@]1(C)O [Example 9, 6-(2,6-difluoro-4-(methylsulfonyl)phenyl)-N-(4-((1R,3R,4R,5S)-3,4-dihydroxy-4,5-dimethylcyclohexyl)pyridin-3-yl)-5-fluoropicolinamide] |
| 6.98 | 9.74 | 6.51 | 7.48 | CCN1CCC(c2cc(F)c(-c3nc(C(=O)Nc4cnccc4[C@H]4C[C@@H](O)[C@](C)(O)[C@@H](C)C4)ccc3F)c(F)c2)CC1 [Example 115, N-(4-((1R,3R,4R,5S)-3,4-dihydroxy-4,5-dimethylcyclohexyl)pyridin-3-yl)-6-(4-(1-ethylpiperidin-4-yl)-2,6-difluorophenyl)-5-fluoropicolinamide] |
| 8.57 | 10.70 | 7.37 | 8.93 | C[C@H]1C[C@@H](c2ccncc2NC(=O)c2ccc(F)c(-c3c(F)cc(C4(O)CCCC4)cc3F)n2)C[C@@H](N)[C@]1(C)O [Example 82, N-(4-((1R,3R,4R,5S)-3-amino-4-hydroxy-4,5-dimethylcyclohexyl)pyridin-3-yl)-6-(2,6-difluoro-4-(1-hydroxycyclopentyl)phenyl)-5-fluoropicolinamide] |
| 8.12 | 10.15 | 6.08 | 8.36 | C[C@H]1C[C@@H](c2ccncc2NC(=O)c2ccc(F)c(-c3c(F)cc(C(F)F)cc3F)n2)C[C@@H](N)[C@]1(C)O [Example 104, N-(4-((1R,3R,4R,5S)-3-amino-4-hydroxy-4,5-dimethylcyclohexyl)pyridin-3-yl)-6-(4-(difluoromethyl)-2,6-difluorophenyl)-5-fluoropicolinamide] |
| 7.60 | 9.85 | 6.69 | 8.62 | COCCOc1ccc(F)c(-c2nc(C(=O)Nc3cnccc3[C@H]3C[C@@H](N)[C@](C)(O)[C@@H](C)C3)ccc2F)c1F [Example 6, N-(4-((1R,3R,4R,5S)-3-amino-4-hydroxy-4,5-dimethylcyclohexyl)pyridin-3-yl)-6-(2,6-difluoro-3-(2-methoxyethoxy)phenyl)-5-fluoropicolinamide] |
